Results: paper PMC6414200, “Stepwise activation mechanism of the scramblase nhTMEM16 revealed by cryo-EM” (eLife, 2019)

Biological target: T1, nhTMEM16 (Fusarium vanettenii, UniProt C7Z7K1)
T1 construct: gene NECHADRAFT_66456; full open reading frame, N-terminal SBP-Myc-3C tag kept for scrambling assay; expressed in S. cerevisiae FGY217, purified in DDM, reconstituted into liposomes; homodimer
T1 sequence (C7Z7K1 1-735): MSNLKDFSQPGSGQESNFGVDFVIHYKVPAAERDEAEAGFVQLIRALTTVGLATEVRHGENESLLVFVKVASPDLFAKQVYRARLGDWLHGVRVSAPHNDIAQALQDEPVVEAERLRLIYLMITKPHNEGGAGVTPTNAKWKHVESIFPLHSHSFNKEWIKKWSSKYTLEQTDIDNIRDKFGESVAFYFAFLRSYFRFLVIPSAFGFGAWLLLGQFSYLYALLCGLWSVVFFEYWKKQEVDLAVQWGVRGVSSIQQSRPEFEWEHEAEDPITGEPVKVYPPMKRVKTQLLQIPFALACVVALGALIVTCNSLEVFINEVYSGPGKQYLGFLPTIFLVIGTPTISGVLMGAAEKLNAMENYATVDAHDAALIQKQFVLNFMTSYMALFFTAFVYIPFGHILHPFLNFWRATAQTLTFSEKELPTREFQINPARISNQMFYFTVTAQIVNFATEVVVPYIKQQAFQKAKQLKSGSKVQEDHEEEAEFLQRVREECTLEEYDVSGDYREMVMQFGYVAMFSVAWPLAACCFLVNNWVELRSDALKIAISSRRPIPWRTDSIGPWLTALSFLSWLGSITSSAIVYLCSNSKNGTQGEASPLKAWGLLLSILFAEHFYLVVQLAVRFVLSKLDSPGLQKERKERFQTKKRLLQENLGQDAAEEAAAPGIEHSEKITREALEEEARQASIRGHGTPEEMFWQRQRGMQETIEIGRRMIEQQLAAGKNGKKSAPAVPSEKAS
Test: proteoliposome scrambling assay, dithionite quenching of NBD fluorescence
Format: biochemical
Conditions: Ca2+-stimulated with basal activity without Ca2+; E. coli polar lipids/egg PC 3:1, pH 7.5, 300 mM KCl; labelled compound; lipid transport (flip-flop)

CCCCCCCC/C=C\CCCCCCCC(=O)OC[C@H](COP(=O)(O)OCCN)OC(=O)CCCCCNc1ccc([N+](=O)[O-])c2nonc12 [18:1-06:0 NBD-PE]
proteoliposome scrambling assay, dithionite quenching of NBD fluorescence: Traces depict sections of the fluorescence decrease of tail-labeled NBD-PE lipids after addition of dithionite
